# Calls of active or inactive are those of the source. No cut-off for these calls is given here.
# Assays:
# [1] = biological target: Advanced glycosylation end product-specific receptor (Homo sapiens, UniProt Q15109); assay: Inhibition of biotinylated human RAGE/amyloid beta interaction incubated for 120 mins by ELISA assay
# [2] = Toxicity in ICR mouse assessed as change in brain to body weight ratio at 100 mg/kg, ip administered as single dose and measured after 2 weeks; assay type: organism-based; details: in vivo, 336 h
# [3] = system: SH-SY5Y; assay: Cytotoxicity against human SH-SY5Y cells assessed as effect on cell viability at 1 to 10 uM incubated for 24 hrs by MTT assay; assay type: toxicity, cell-based; details: dose 1-10 µM
# [4] = Cytotoxicity against human SH-SY5Y cells assessed as cell viability at 20 uM incubated for 24 hrs by MTT assay relative to control; assay type: toxicity, cell-based; details: read-out: Activity
# [5] = Toxicity in ICR mouse assessed as animal survival at 100 mg/kg, ip administered as single dose measured upto 2 weeks; assay type: organism-based; details: in vivo
# [6] = Toxicity in ICR mouse assessed as animal survival at 200 mg/kg, ip administered as single dose measured upto 2 weeks; assay type: organism-based; details: in vivo, 336 h
# [7] = Toxicity in ICR mouse assessed as change in liver to body weight ratio at 100 mg/kg, ip administered as single dose and measured after 2 weeks; assay type: organism-based; details: in vivo, 336 h
# [8] = biological target: Voltage-gated inwardly rectifying potassium channel KCNH2 (Homo sapiens, UniProt Q12809); assay: Inhibition of hERG transfected in CHO cells by manual patch-clamp assay; assay type: toxicity, cell-based
# [9] = Metabolic stability in mouse liver microsomes assessed as half life at 100 uM in presence of NADPH and measured for 5 to 60 mins by LC-MS/MS analysis; assay type: ADME, Microsome; details: time 5-60 min
# [10] = Metabolic stability in mouse liver microsomes assessed as clearance at 100 uM in presence of NADPH and measured for 5 to 60 mins by LC-MS/MS analysis; assay type: ADME, Microsome; details: time 5-60 min, read-out: CLH
# [11] = biological target: T1, CYP1A2 (Homo sapiens, UniProt P05177); assay: Inhibition of CYP1A2 in human liver microsomes at 10 uM incubated for 10 mins in presence of NADPH by LC-MS/MS analysis relative to control; assay type: ADME, Microsome
# T1 sequence (P05177 whole entry): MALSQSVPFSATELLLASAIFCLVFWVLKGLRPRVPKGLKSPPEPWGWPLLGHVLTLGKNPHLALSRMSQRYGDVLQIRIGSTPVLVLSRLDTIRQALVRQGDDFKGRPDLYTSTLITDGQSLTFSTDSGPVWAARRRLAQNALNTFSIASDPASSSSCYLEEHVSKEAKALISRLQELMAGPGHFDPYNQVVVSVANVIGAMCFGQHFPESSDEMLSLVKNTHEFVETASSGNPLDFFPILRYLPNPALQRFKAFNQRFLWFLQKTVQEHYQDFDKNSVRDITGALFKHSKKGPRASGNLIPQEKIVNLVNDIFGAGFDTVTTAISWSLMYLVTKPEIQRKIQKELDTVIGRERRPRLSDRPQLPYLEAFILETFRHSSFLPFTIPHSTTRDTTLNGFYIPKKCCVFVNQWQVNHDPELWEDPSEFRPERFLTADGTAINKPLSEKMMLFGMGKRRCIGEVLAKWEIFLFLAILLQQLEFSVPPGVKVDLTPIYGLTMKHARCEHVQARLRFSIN
# [12] = biological target: CYP2C9 (Homo sapiens, UniProt P11712); assay: Inhibition of CYP2C9 in human liver microsomes at 10 uM incubated for 10 mins in presence of NADPH by LC-MS/MS analysis relative to control; assay type: ADME, Microsome
# [13] = biological target: CYP2C19 (Homo sapiens, UniProt P33261); assay: Inhibition of CYP2C19 in human liver microsomes at 10 uM incubated for 10 mins in presence of NADPH by LC-MS/MS analysis relative to control; assay type: ADME, Microsome
# [14] = biological target: CYP3A4 (Homo sapiens, UniProt P08684); assay: Inhibition of CYP3A4 in human liver microsomes at 10 uM incubated for 10 mins in presence of NADPH by LC-MS/MS analysis relative to control; assay type: ADME, Microsome
# [15] = system: Mus musculus; assay: Anti-depressant activity in ICR mouse assessed as reduction in immobility time at 60 mg/kg, po measured after 1 hr post treatment by tail suspension test; assay type: functional, organism-based
# [16] = Half life in mouse at 60 mg/kg, po measured for 0.25 to 24 hrs; assay type: ADME, organism-based; details: in vivo, time 0.25-24 hrs
# [17] = Cmax in mouse at 60 mg/kg, po measured for 0.25 to 24 hrs; assay type: ADME, organism-based; design: time 0.25-24 hrs, dose 60 mg/kg, route po; details: in vivo
# [18] = AUC (0 to infinity) in mouse at 60 mg/kg, po measured for 0.25 to 24 hrs; assay type: ADME, organism-based; design: time lower 0.25 hrs, dose 60 mg/kg, time upper 24 hrs, route po; details: in vivo
# [19] = Oral bioavailability in mouse at 60 mg/kg measured for 0.25 to 24 hrs; assay type: ADME, organism-based; details: in vivo, time 0.25-24 hrs
# [20] = Half life in mouse at 10 mg/kg, iv measured for 0.083 to 24 hrs; assay type: ADME, organism-based; details: in vivo, time 0.083-24 hrs
# [21] = Cmax in mouse at 10 mg/kg, iv measured for 0.083 to 24 hrs; assay type: ADME, organism-based; design: time lower 0.083 hrs, dose 10 mg/kg, time upper 24 hrs, route iv; details: in vivo
# [22] = AUC (0 to infinity) in mouse at 10 mg/kg, iv measured for 0.083 to 24 hrs; assay type: ADME, organism-based; design: dose 10 mg/kg, time 0.083-24 hrs, route iv; details: in vivo
# [23] = Clearance in mouse at 10 mg/kg, iv measured for 0.083 to 24 hrs; assay type: ADME, organism-based; details: in vivo, time 0.083-24 hrs
# [24] = Volume of distribution at steady state in mouse at 10 mg/kg, iv measured for 0.083 to 24 hrs; assay type: ADME, organism-based; details: in vivo, time 0.083-24 hrs, read-out: Vdss
# [25] = Toxicity in ICR mouse assessed as change in heart to body weight ratio at 100 mg/kg, ip administered as single dose and measured after 2 weeks; assay type: organism-based; details: in vivo, 336 h
# [26] = Toxicity in ICR mouse assessed as change in spleen to body weight ratio at 100 mg/kg, ip administered as single dose and measured after 2 weeks; assay type: organism-based; details: in vivo, 336 h
# [27] = Toxicity in ICR mouse assessed as change in lungs to body weight ratio at 100 mg/kg, ip administered as single dose and measured after 2 weeks; assay type: organism-based; details: in vivo, 336 h
# [28] = Toxicity in ICR mouse assessed as change in kidney to body weight ratio at 100 mg/kg, ip administered as single dose and measured after 2 weeks; assay type: organism-based; details: in vivo, 336 h
# [29] = system: SH-SY5Y; assay: Cytotoxicity against human SH-SY5Y cells assessed as cell death at 5 uM incubated for 24 hrs by MTT assay; assay type: toxicity, cell-based
# [30] = system: SH-SY5Y; assay: Cytotoxicity against human SH-SY5Y cells assessed as reduction in cell viability at 10 to 20 uM incubated for 24 hrs by MTT assay; assay type: toxicity, cell-based; details: dose 10-20 µM
# [31] = Metabolic stability in mouse liver microsomes assessed as parent compound remaining in presence of NADPH and measured after 60 mins by LC-MS/MS analysis
# [32] = Cytotoxicity against human SH-SY5Y cells assessed as cell viability at 5 uM incubated for 24 hrs by MTT assay relative to control; assay type: toxicity, cell-based; details: read-out: Activity
# [33] = system: Mus musculus; assay: Anti-depressant activity in ICR mouse assessed as reduction in immobility time at 30 mg/kg, po measured after 1 hr post treatment by tail suspension test; assay type: functional, organism-based
# [34] = biological target: Sodium-dependent serotonin transporter (Homo sapiens, UniProt P31645)
# Sequence of Sodium-dependent serotonin transporter (P31645 whole entry): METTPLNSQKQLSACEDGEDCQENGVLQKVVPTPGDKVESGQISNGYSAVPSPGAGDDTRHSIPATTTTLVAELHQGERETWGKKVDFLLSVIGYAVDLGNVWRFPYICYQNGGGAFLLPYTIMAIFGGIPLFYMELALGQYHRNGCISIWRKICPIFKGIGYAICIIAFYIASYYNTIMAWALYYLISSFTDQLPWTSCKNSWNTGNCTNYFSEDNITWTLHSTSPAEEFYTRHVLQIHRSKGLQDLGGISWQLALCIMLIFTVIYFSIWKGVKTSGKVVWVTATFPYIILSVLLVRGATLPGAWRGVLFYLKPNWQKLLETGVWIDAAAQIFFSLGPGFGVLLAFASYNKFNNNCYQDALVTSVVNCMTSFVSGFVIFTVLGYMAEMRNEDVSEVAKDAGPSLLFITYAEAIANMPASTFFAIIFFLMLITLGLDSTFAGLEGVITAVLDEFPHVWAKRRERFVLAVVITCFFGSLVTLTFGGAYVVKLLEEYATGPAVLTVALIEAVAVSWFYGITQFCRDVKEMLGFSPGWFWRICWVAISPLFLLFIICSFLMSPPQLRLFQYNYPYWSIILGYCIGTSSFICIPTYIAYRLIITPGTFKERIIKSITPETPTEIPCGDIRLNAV
# Sequence of CYP3A4 (P08684 whole entry): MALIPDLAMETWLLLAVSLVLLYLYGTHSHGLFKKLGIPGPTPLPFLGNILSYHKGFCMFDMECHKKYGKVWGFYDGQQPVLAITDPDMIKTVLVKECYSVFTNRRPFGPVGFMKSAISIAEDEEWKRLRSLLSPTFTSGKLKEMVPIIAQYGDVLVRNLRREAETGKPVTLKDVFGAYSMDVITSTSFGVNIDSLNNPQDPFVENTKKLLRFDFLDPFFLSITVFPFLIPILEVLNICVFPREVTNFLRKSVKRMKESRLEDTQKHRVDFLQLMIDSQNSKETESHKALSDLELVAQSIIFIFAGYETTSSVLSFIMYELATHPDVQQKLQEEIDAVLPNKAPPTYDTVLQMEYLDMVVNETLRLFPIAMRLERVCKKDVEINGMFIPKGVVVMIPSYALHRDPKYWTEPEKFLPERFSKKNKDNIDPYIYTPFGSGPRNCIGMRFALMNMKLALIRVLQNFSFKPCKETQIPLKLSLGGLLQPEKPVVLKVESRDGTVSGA
# Sequence of Advanced glycosylation end product-specific receptor (Q15109 whole entry): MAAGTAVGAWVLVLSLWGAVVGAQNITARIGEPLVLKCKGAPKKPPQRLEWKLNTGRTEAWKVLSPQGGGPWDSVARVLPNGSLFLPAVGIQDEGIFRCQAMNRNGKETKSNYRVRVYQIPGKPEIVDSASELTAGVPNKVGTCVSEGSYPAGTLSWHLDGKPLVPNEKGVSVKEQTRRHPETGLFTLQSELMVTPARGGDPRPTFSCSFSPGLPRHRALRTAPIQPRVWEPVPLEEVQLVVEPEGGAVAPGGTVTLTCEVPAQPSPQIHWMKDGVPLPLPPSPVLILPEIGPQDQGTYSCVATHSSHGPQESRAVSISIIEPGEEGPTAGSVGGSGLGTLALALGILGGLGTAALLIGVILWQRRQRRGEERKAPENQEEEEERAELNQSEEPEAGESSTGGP
# Sequence of CYP2C19 (P33261 whole entry): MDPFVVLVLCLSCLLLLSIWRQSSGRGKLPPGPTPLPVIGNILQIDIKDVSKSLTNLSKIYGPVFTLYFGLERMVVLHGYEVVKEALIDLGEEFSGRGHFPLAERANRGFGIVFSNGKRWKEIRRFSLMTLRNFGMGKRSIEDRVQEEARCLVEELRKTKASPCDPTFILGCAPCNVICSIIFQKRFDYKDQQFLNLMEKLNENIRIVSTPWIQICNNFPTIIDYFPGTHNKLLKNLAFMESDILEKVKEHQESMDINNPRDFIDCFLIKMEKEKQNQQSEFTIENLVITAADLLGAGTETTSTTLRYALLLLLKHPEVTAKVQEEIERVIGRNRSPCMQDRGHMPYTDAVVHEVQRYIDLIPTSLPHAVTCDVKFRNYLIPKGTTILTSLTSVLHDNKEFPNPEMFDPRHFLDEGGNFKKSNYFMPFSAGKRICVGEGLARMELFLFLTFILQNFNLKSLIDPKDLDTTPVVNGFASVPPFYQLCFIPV
# Sequence of CYP2C9 (P11712 whole entry): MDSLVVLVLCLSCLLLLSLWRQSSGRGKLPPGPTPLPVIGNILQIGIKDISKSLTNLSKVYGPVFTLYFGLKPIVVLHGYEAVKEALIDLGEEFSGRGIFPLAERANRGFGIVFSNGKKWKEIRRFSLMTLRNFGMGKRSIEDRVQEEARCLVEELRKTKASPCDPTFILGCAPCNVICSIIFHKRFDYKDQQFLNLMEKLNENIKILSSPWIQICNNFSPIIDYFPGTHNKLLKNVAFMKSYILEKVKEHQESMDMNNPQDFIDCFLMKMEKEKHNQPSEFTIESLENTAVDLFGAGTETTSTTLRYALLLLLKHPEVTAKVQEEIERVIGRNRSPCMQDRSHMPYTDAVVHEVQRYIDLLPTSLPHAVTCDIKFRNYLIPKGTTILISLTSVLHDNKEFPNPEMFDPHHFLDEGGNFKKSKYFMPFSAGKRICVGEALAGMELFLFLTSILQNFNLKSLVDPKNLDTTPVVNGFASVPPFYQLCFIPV
# Sequence of Voltage-gated inwardly rectifying potassium channel KCNH2 (Q12809 whole entry): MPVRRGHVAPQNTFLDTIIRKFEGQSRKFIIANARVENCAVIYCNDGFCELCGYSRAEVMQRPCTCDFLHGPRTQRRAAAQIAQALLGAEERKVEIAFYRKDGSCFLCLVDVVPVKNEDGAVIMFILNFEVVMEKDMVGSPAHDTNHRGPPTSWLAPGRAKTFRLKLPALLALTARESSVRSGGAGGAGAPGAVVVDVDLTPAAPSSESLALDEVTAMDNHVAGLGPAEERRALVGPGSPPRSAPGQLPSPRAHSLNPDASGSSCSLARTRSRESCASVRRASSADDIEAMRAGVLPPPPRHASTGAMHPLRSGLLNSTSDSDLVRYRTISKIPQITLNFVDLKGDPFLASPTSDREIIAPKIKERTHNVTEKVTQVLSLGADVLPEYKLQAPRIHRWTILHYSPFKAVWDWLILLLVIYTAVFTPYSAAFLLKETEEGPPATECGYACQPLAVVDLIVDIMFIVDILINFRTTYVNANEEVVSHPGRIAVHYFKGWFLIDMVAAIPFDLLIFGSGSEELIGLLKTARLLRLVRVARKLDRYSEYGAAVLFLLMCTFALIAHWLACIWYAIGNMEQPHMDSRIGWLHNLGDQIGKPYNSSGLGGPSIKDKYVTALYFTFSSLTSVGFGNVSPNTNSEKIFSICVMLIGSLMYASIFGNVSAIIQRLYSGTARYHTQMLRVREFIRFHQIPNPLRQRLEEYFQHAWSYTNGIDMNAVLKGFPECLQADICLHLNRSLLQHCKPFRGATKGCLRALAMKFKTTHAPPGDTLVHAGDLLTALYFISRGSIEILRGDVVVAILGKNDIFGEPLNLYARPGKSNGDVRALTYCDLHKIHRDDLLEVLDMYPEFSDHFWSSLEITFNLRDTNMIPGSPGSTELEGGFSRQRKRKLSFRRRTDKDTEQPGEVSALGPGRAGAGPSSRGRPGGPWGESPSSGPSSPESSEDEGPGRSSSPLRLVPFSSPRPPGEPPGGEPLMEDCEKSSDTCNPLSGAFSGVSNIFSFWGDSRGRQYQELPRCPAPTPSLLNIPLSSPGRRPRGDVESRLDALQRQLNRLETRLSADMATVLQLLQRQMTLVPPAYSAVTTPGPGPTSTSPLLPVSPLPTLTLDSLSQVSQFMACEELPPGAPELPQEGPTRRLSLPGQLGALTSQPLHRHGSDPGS
compound,measurement,setting,value
CCN(CC)CCOc1cccc(Nc2nc(-c3ccc(Cl)cc3)cc(-c3ccc(Cl)cc3)n2)c1,IC50,[1],10.5 µM
CCCCc1sc(C2CCN(CCCCc3cn(C)c4ccc(C#N)cc34)CC2)nc1-c1ccc(Oc2ccc(Cl)cc2)cc1,Activity,[2],Non-Toxic
same,Activity,[3],Non-Toxic
same,"viability at 24 h, 20 µM",[4],> 80%
same,survival at 336 h,[5],100%
same,Activity,[6],Toxic
same,Activity,[7],Non-Toxic
same,IC50,[8],7.2 µM
same,half-life at 100 µM,[9],1.31 h
same,microsomal CLint at 100 µM,[10],17.6 µL/min/mg
same,"inhibition at 10 min, 10 µM",[11],17.2%
same,"inhibition at 10 min, 10 µM",[12],8.6%
same,"inhibition at 10 min, 10 µM",[13],23.7%
same,"inhibition at 10 min, 10 µM",[14],16.3%
same,Activity,[15],Active
same,half-life,[16],5.55 h
same,Cmax,[17],4940 ng/mL
same,AUC(0-inf),[18],24700 ng·h/mL
same,bioavailability,[19],17.1%
same,half-life,[20],3.46 h
same,Cmax,[21],51700 ng/mL
same,AUC(0-inf),[22],23700 ng·h/mL
same,clearance,[23],7.09 mL/min/kg
same,Vd,[24],1.04 L/kg
same,Activity,[25],Non-Toxic
same,Activity,[26],Non-Toxic
same,Activity,[27],Non-Toxic
same,Activity,[28],Non-Toxic
CCc1nc(C2CCN(CCCCc3c[nH]c4ccc(C#N)cc34)CC2)cn1-c1ccc(Oc2ccc(Cl)cc2)cc1,Activity,[29],Toxic
same,Activity,[30],Toxic
C[C@]12CC[C@H]3[C@@H](CCC4=CC(=O)CC[C@@]43C)[C@@H]1CC[C@@H]2O [TESTOSTERONE],remaining at 1 h,[31],2.2%
CCCCCc1nc(C2CCN(CCCCc3cn(C)c4ccc(C#N)cc34)CC2)cn1-c1ccc(Oc2ccc(Cl)cc2)cc1,Activity,[29],Toxic
same,Activity,[30],Toxic
CCCCc1nc(C2CCN(CCCCc3c[nH]c4ccc(C#N)cc34)CC2)cn1-c1ccc(Oc2ccc(Cl)cc2)cc1,"viability at 24 h, 5 µM",[32],4.82%
same,Activity,[29],Toxic
same,Activity,[30],Toxic
N#Cc1ccc2[nH]cc(CCCCN3CCN(c4ccc5oc(C(N)=O)cc5c4)CC3)c2c1 [VILAZODONE],IC50,[1],> 200 µM
same,half-life at 100 µM,[9],0.468 h
same,microsomal CLint at 100 µM,[10],49.3 µL/min/mg
same,"inhibition at 10 min, 10 µM",[11],14.4%
same,"inhibition at 10 min, 10 µM",[12],49.2%
same,"inhibition at 10 min, 10 µM",[13],51.3%
same,"inhibition at 10 min, 10 µM",[14],29%
same,Activity,[33],Active
N#Cc1ccc2[nH]cc(CCCCN3CCC(c4cn(-c5ccc(Oc6ccc(Cl)cc6)cc5)c(C5CCC5)n4)CC3)c2c1,Activity,[29],Toxic
same,Activity,[30],Toxic
CCCCc1nc(-c2ccc(OCCCN(CC)CC)cc2)cn1-c1ccc(Oc2ccc(Cl)cc2)cc1 [AZELIRAGON],Activity,[29],Toxic
same,IC50,[8],< 1 µM
same,half-life at 100 µM,[9],1.55 h
same,microsomal CLint at 100 µM,[10],14.9 µL/min/mg
same,"inhibition at 10 min, 10 µM",[11],0%
same,"inhibition at 10 min, 10 µM",[12],3.7%
same,"inhibition at 10 min, 10 µM",[13],7.9%
same,"inhibition at 10 min, 10 µM",[14],0%
same,IC50,[34],> 3 µM
CCCCc1sc(C2CCN(CCc3c[nH]c4ccc(C#N)cc34)CC2)nc1-c1ccc(Oc2ccc(Cl)cc2)cc1,IC50,[1],> 20 µM
same,IC50,[34],> 0.1 µM
CCCc1nc(C2CCN(CCCCc3c[nH]c4ccc(C#N)cc34)CC2)cn1-c1ccc(Oc2ccc(Cl)cc2)cc1,Activity,[29],Toxic
same,Activity,[30],Toxic
CCCCc1nc(C2CCN(CCc3c[nH]c4ccc(C#N)cc34)CC2)cn1-c1ccc(Oc2ccc(Cl)cc2)cc1,IC50,[1],> 20 µM
same,IC50,[34],> 0.1 µM
CCCCc1nc(C2CCN(Cc3c[nH]c4ccc(C#N)cc34)CC2)cn1-c1ccc(Oc2ccc(Cl)cc2)cc1,Activity,[29],Toxic
same,Activity,[30],Toxic
CCCCc1sc(C2CCN(CCCCc3c[nH]c4ccc(C#N)cc34)CC2)nc1-c1ccc(Oc2ccc(Cl)cc2)cc1,Activity,[29],Non-Toxic
same,Activity,[30],Toxic

# Source: ChEMBL document CHEMBL5154874, “Discovery of novel dual RAGE/SERT inhibitors for the potential treatment of the comorbidity of Alzheimer's disease and depression” (Eur J Med Chem, 2022)
